The test system of assay [1] is mice. As to the kind of experiment: Synergy effect of the inventive compound combined with conventional anti-depressants in forced swimming test. In kind it is in vivo. Particulars: for anti-immobility effect in FST, anti-depressant alone: 25 mg/kg p.o.
Experimental: Each drug or vehicle was suspended in 3% Tween 80 solution and administered orally (p.o.) 60 min before forced swimming test.
In assay [2] the target is T1, human recombinant 5-HT2C receptor (Homo sapiens, UniProt P28335).
T1 construct: purchased PerkinElmer
T1 sequence (P28335 33-458): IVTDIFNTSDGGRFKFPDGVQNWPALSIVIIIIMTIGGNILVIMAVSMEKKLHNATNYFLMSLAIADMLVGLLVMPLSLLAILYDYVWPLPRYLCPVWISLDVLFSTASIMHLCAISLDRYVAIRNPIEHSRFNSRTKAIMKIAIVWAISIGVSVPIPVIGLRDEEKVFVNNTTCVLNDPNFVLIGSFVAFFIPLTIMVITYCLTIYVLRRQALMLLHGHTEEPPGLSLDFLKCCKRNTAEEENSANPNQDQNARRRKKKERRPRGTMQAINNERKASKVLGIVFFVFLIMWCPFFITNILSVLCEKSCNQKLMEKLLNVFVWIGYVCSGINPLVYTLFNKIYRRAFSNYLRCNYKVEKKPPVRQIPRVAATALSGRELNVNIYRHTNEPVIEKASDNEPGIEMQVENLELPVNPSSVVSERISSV
As to the kind of experiment: Binding affinity for serotonin 5-HT2C receptor ([3H]Mesulergine). To be noted: CHO-K1 membranes, 1.3 nM [3H]Mesulergine; read-out: binding affinity (IC50) 5-HT2C. On the procedure: (§1) Receptor binding affinities of the compounds for serotonin receptors were measured by the method described in the literature (see [Park W K et al., Pharmacol Biochem Behav., 82(2), 361-372 (2005)].
(§2) The binding affinity (IC50) of a compound for the receptor was calculated by computerized nonlinear regression analysis (GraphPad Prism Program, San Diego, USA) using 7-8 varied concentrations of the compound run in duplicate tubes.
For serotonin 5-HT2C binding, frozen membranes from stable CHO-K1 cell line expressing the human recombinant 5-HT2C receptor (PerkinElmer, 4 μg/well), [^3H]Mesulergine (Amersham, 1.3 nM) and test compounds were added into 50 mM Tris-HCl (pH 7.4) buffer containing 0.1% ascorbic acid and 4 mM CaCl2. Nonspecific binding was determined using 100 μM mianserin. The incubations were performed for 60 min at 27, and these were terminated by rapid filtration through filtermate A glass fiber filter presoaked in 0.5% PEI.

The target in assay [3] is T2, human serotonin transporter (Homo sapiens, UniProt P31645).
T2 construct: purchased PerkinElmer; host or cells: HEK-293 cells
As to the kind of experiment: Binding affinity for serotonin transporter ([3H]Imipramine). To be noted: HEK-293 membrane, 2 nM [3H]Imipramine; read-out: binding affinity Serotonin Transporter. How it is done:
For serotonin transporter binding assays, a reaction mixture with a final volume of 0.25 ml was prepared by mixing a test compound, human serotonin transporter membrane expressed in HEK-293 cells (PerkinElmer, 5 μg/well), [^3H] Imipramine (PerkinElmer, 2 nM) and 50 mM Tris-HCl (pH 7.4) buffer containing 120 mM NaCl and 5 mM KCl. The reaction mixture was incubated for 30 min at 27, and harvested through filtermate A glass fiber filter presoaked in 0.5% PEI with ice cold 50 mM Tris-HCl buffer (pH 7.4) containing 0.9% NaCl.

Assay [4] has as its target T3, human recombinant serotonin 5-HT2A receptor (Homo sapiens, UniProt P28223).
T3 construct: purchased PerkinElmer Life and Analytical Sciences, USA; host or cells: CHO-K1 cells
As to the kind of experiment: Binding affinity for serotonin 5-HT2A receptor ([3H]Ketanserin). To be noted: CHO-K1 cells, 1 nM [3H]Ketanserin; read-out: binding affinity (IC50) 5-HT2A. How it is done: as §1
For serotonin 5-HT2A binding, an aliquot of human recombinant serotonin 5-HT2A receptor (PerkinElmer Life and Analytical Sciences, USA) expressed in CHO-K1 cells (5 μg/well) and 1 nM [^3H]Ketanserin (PerkinElmer) were used in the presence of mianserin (20 μM) as a nonspecific. The reaction mixture was incubated for 60 min […] 50 mM Tris-HCl (pH 7.4) buffer containing 4 mM CaCl2 and 0.1% ascorbic acid, and harvested through filtermate A glass fiber filter (Wallac, Finland) presoaked in 0.5% polyethyleneimine (PEI) by microbeta filtermate-96 harvester (PerkinElmer) to terminate the reaction, and then washed with ice cold 50 mM Tris-HCl buffer solution (pH 7.4). The filter was then covered with MeltiLex, sealed in a sample bag, dried in an oven. The radioactivity retained in the filter was finally counted using MicroBeta Plus (Wallac).
as §2

Assay [5] relates to mice. As to the kind of experiment: Anti-depressants activity in forced swimming test. Particulars: 60 min before testing. In kind it is in vivo.
Experimental: Each mouse was placed in a 25 cm glass cylinder (10 cm diameter) containing 15 cm of water maintained at 22±1, and was forced to swim for 10 min. 24 hours later, the mouse was replaced into the cylinder and the total duration of immobility was recorded during the last 5 min of the 6-min testing period. Mice are judged immobile when they float in an upright position and make only small movements to keep their head above water. Test drugs were suspended in 3% Tween 80 solution, and administered orally (po) 60 min before the testing.

pIC50: −log10 of the molar value.

T2 sequence (P31645 whole entry): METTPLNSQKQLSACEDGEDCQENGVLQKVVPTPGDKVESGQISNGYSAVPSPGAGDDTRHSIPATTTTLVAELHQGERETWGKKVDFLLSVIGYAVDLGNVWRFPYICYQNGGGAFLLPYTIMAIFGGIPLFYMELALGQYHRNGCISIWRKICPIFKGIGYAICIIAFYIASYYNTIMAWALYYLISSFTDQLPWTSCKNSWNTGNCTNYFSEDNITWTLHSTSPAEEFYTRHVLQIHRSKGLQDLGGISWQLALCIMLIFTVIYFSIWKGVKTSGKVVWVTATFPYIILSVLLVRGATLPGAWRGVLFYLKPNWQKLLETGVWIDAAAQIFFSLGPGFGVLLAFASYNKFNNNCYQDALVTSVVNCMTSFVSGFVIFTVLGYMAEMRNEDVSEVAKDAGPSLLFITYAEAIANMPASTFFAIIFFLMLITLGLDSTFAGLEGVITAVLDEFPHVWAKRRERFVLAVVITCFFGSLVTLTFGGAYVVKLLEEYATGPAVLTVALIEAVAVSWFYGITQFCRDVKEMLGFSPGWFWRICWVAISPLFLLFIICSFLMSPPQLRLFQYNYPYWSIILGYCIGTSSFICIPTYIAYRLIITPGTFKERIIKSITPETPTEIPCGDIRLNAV
T3 sequence (P28223 whole entry): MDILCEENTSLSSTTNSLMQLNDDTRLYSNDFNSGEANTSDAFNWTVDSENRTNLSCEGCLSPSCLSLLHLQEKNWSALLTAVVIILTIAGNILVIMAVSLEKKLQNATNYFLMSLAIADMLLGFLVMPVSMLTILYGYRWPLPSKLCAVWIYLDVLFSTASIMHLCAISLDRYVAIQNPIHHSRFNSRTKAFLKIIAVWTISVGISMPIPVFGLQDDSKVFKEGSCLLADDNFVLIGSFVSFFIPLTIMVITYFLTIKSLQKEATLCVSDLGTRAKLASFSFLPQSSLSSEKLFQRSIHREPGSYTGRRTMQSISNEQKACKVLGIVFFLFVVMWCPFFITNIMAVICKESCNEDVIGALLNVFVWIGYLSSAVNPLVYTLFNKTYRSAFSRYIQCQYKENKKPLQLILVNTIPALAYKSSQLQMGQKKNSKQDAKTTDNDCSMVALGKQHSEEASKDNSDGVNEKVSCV

Regarding `COc1ccc(C(CN(C)C)C2(O)CCCCC2)cc1` (stereo not drawn) [Effexor], in the assay with mice [1], the “anti-immobility effect in FST, anti-depressant alone” value is recorded as “did not improve the anti-immobility effect”.

Take `Cc1cccc(N2CCN(CCCCNc3ncnc4c3nc(-c3ccccc3)n4-c3ccccc3)CC2)c1C` [Example 68, N-(4-(4-(2,3-dimethylphenyl)piperazin-1-yl)butyl)-8,9-diphenyl-9H-purine-6-amine]: the pIC50 in assay [2] was 8.33; in assay [3] it was 6.84; in assay [4] it was 8.62. The “Immobility in forced swimming test” value in the assay with mice [5] (25 mg/kg po) is given as 78.66 ± 11.33%; with mice [5] (50 mg/kg po), 72.11 ± 7.63%. The “efficacy in forced swimming test, compound alone” value in the assay with mice [1] (12.5 mg/kg or 25 mg/kg p.o.) is recorded as “do not demonstrate efficacy on animal model”.

Turning to `Cc1cccc(N2CCN(CCCNc3ncnc4c3nc(-c3cccs3)n4-c3ccccc3)CC2)c1C.Cl` [Example 92, N-(3-(4-(2,3-dimethylphenyl)piperazin-1-yl)propyl)-9-phenyl-8-(thiophen-2-yl)-9H-purine-6-amine hydrochloride], the results for the pIC50 in assay [2], in assay [3] and in assay [4] were 6.52, 7.41 and 7.77, respectively. Further, in the assay on mice [5] (25 mg/kg po), the “Immobility in forced swimming test” value was determined as 85.86 ± 8.90%.

In the case of `CNCCC(Oc1ccc(C(F)(F)F)cc1)c1ccccc1` (stereo not drawn) [Prozac], the “anti-immobility effect in FST, anti-depressant alone” value with mice [1] is on record as “did not improve the anti-immobility effect”.

The record behind these values is patent publication US8785453B2, “Arylpiperazine-containing purine derivatives and uses thereof” (Green Cross Corporation, priority 2009, dated 2014).
